According to EP3858439A1 (priority 2020, dated 2021):
Where a name gives a salt, the structure may show the parent alone.

Each molecule was assayed against T1, human µ-opioid receptor (Homo sapiens, UniProt P35372) (assay: Binding assay to human µ-opioid receptor ([3H]-DAMGO displacement)). Settings: not given.
T1 construct: expressed in transfected cells; host or cells: CHO-K1
Description: Binding assay to human µ-opioid receptor
Transfected CHO-K1 cell membranes (20 µg) were incubated with [^3H]-DAMGO (1 nM) in assay buffer containing Tris-HCl 50 mM, MgCl2 5 mM at pH 7.4.
Plates were incubated at 27 °C for 60 min. After the incubation period, the reaction mixture was then transferred to MultiScreen HTS, FC plates (Millipore), filtered and plates were washed 3 times with ice-cold 10 mM Tris-HCl (pH 7.4).
Filters were dried and counted at approximately 40% efficiency in a MicroBeta scintillation counter (Perkin-Elmer) using EcoScint liquid scintillation cocktail.

T1 sequence (P35372 whole entry): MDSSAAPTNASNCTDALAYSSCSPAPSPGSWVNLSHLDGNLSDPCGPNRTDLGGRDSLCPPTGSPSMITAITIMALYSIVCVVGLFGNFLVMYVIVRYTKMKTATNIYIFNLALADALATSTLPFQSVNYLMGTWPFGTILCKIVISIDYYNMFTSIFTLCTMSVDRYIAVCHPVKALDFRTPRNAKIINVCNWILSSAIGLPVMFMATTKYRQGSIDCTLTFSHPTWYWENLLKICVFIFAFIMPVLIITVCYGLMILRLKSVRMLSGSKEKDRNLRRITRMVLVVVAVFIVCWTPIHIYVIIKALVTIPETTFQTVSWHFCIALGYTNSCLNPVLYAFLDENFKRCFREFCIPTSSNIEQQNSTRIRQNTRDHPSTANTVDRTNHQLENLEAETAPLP

SMILES | Ki
CNCC(Cc1ccccc1F)C(=O)N1CCC(c2ccccc2)(N(C)C)CC1 (stereo not drawn) [Example 57, 1-(4-(dimethylamino)-4-phenylpiperidin-1-yl)-2-(2-fluorobenzyl)-3-(methylamino)propan-1-one dihydrochloride] | < 100 nM
CNCC(Cc1ccccc1)C(=O)N1CCC(c2ccccc2)(N(C)C)CC1 (stereo not drawn) [Example 70, 2-benzyl-1-(4-(dimethylamino)-4-phenylpiperidin-1-yl)-3-(methylamino)propan-1-one] | 100 to 500 nM
Cc1ccccc1CC(CN)C(=O)N1CCC(c2ccccc2)(N(C)C)CC1 (stereo not drawn) [Example 75, 3-Amino-1-(4-(dimethylamino)-4-phenylpiperidin-1-yl)-2-(2-methylbenzyl)propan-1-one dihydrochloride] | 100 to 500 nM
CN(C)C1(c2ccccc2)CCN(C(=O)C(CNCc2ccccc2)Cc2ccccc2)CC1 (stereo not drawn) [Example 76, 2-Benzyl-3-(benzylamino)-1-(4-(dimethylamino)-4-phenylpiperidin-1-yl)propan-1-one dihydrochloride] | < 100 nM
CNC[C@H](Cc1ccccc1)C(=O)N1CCC(c2ccccc2)(N(C)C)CC1 [Example 79, (S)-2-Benzyl-1-(4-(dimethylamino)-4-phenylpiperidin-1-yl)-3-(methylamino)propan-1-one dihydrochloride] | < 100 nM
CNC[C@@H](C(=O)N1CCC(c2ccccc2)(N(C)C)CC1)[C@H](C)c1ccccc1 [Example 85, (2S,3S)-1-(4-(Dimethylamino)-4-phenylpiperidin-1-yl)-2-((methylamino)methyl)-3-phenylbutan-1-one] | 100 to 500 nM
CNC[C@H](C(=O)N1CCC(c2ccccc2)(N(C)C)CC1)[C@H](C)c1ccccc1 [Example 87, (2R,3S)-1-(4-(dimethylamino)-4-phenylpiperidin-1-yl)-2-((methylamino)methyl)-3-phenylbutan-1-one] | 100 to 500 nM

Same assay, conditions: Table 2; transfected CHO-K1 cell membranes, [3H]-DAMGO 1 nM, 60 min at 27 °C; read-out: Binding µ

SMILES | Ki
CC[C@@H](c1ccccc1)[C@@H](CNC)C(=O)N1CCC(NC)(c2ccc(F)cc2)CC1 [Example 65, (2S,3R)-1-(4-(4-fluorophenyl)-4-(methylamino)piperidin-1-yl)-2-((methylamino)methyl)-3-phenylpentan-1-one] | < 100 nM
CC[C@@H](c1cccc(Cl)c1)[C@@H](CN)C(=O)N1CCC(c2ccccc2)(N(C)C)CC1 [Example 66, (2S,3R)-2-(aminomethyl)-3-(3-chlorophenyl)-1-(4-(dimethylamino)-4-phenylpiperidin-1-yl)pentan-1-one] | < 100 nM
CC[C@@H](c1cccc(Cl)c1)[C@@H](CNC)C(=O)N1CCC(c2ccccc2)(N(C)C)CC1 [Example 67, (2S,3R)-3-(3-chlorophenyl)-1-(4-(dimethylamino)-4-phenylpiperidin-1-yl)-2-((methylamino)methyl)pentan-1-one] | < 100 nM
CC[C@@H](c1cccc(Cl)c1)[C@@H](CNC)C(=O)N1CCC(NC)(c2ccc(F)cc2)CC1 [Example 69, (2S,3R)-3-(3-chlorophenyl)-1-(4-(4-fluorophenyl)-4-(methylamino)piperidin-1-yl)-2-((methylamino)methyl)pentan-1-one] | < 100 nM
CNC[C@H](C(=O)N1CCC(c2ccccc2)(N(C)C)CC1)[C@@H](C)c1ccccc1 [Example 86, (2R,3R)-1-(4-(dimethylamino)-4-phenylpiperidin-1-yl)-2-((methylamino)methyl)-3-phenylbutan-1-one] | < 100 nM
